Measurements as given in the NIST ThermoML archive (doi:10.1016/j.jct.2006.05.004).
Numbers after ± are expanded uncertainties.

Columns and labels:
[1] = refractive index (Na D-line) (dimensionless); details: 298.15 K; 101.33 kPa; Liquid; Standard Abbe refractometry
[2] = 298.15 K; 101.33 kPa; Liquid
[3] = xn = mol fraction of the nth substance listed; details: 298.15 K, 101 kPa, Liquid
[4] = excess molar enthalpy (molar enthalpy of mixing); xn = mol fraction of the nth substance listed; details: 298.15 K, 101 kPa, Liquid

COC(C)=O [methyl ethanoate]
Details	mass density [kg/m3]	refractive index
[1]	–	1.3585 ± 0.0008
[2]	926.73 ± 0.84	–

CCC(=O)OC [methyl propanoate]
Details	mass density [kg/m3]	refractive index
[1]	–	1.374 ± 0.0008
[2]	910.18 ± 0.9	–

COC=O [methyl methanoate]
Details	mass density [kg/m3]	refractive index
[1]	–	1.3415 ± 0.0008
[2]	966.83 ± 0.7	–

CCCC(=O)OC [methyl butanoate]
Details	mass density [kg/m3]	refractive index
[1]	–	1.386 ± 0.0008
[2]	892.42 ± 0.97	–

CCCCC(=O)OC [methyl pentanoate]
Details	mass density [kg/m3]	refractive index
[1]	–	1.395 ± 0.0008
[2]	884.59 ± 1	–

BrCCCCCCBr [1,6-dibromohexane] + CCCC(=O)OC
Details	excess molar enthalpy [kcal/mol]	mass density [kg/m3]
[3], x2 = 0.0254	–	1587.59 ± 5.3
[3], x2 = 0.0833	–	1555.83 ± 4.9
[3], x2 = 0.1606	–	1512 ± 4.4
[3], x2 = 0.2243	–	1474.58 ± 4
[3], x2 = 0.291	–	1434.05 ± 3.6
[3], x2 = 0.3545	–	1394.06 ± 3.3
[3], x2 = 0.4193	–	1351.87 ± 3
[3], x2 = 0.5445	–	1265.85 ± 2.3
[3], x2 = 0.6016	–	1224.52 ± 2
[3], x2 = 0.6573	–	1182.86 ± 1.8
[3], x2 = 0.7029	–	1147.73 ± 1.5
[3], x2 = 0.7563	–	1105.29 ± 1.3
[3], x2 = 0.8125	–	1059.12 ± 1.1
[3], x2 = 0.9056	–	978.87 ± 0.81
[4], x2 = 0.0838	0.018 ± 0.000645	–
[4], x2 = 0.1878	0.0309 ± 0.00086	–
[4], x2 = 0.2949	0.0395 ± 0.00098	–
[4], x2 = 0.3961	0.0423 ± 0.00103	–
[4], x2 = 0.4591	0.0405 ± 0.001	–
[4], x2 = 0.5094	0.0383 ± 0.000956	–
[4], x2 = 0.5864	0.0329 ± 0.000884	–
[4], x2 = 0.6566	0.0287 ± 0.000813	–
[4], x2 = 0.734	0.0232 ± 0.000741	–
[4], x2 = 0.8128	0.0172 ± 0.000645	–
[4], x2 = 0.8885	0.0108 ± 0.00055	–
[4], x2 = 0.9526	0.00392 ± 0.00043	–
